Consider 11 compounds from US10683288B2, “Epothilone B and dictyostatin analogs, their preparation and use” (The Trustees of Columbia University in the City of New York, priority 2015, dated 2020).

Read-outs that look alike come from different tables or passages of the source.

Assay [1] has as its system 1A9 (ovarian). The assay can be described thus: cell growth inhibition, dictyostatin analogs, 1A9. The following applies: for GI50: read-out: GI50 1A9. It counts as cell-based. The method, then: (§1) The C(6)- and C(12)-(4-azidobutyl) analogs 1 and 2 as well as triazole 26 and amide 27 were assayed for cell growth inhibition against four cell lines (PC3 (prostate), 1A9 (ovarian), A549 (lung), and DLD1 (colon)) alongside reference samples of synthetic dictyostatin and paclitaxel (Table 1a).

Assay [2] relates to PC3 (prostate), 1A9 (ovarian), A549 (lung), and DLD1 (colon) cell lines. The assay can be described thus: cell growth inhibition, dictyostatin analogs, summary over four cell lines. It counts as cell-based. The method, then: as §1
Assay [3] concerns PC3 (prostate). The assay can be described thus: cell growth inhibition, dictyostatin analogs, PC3. It counts as cell-based. The following applies: for GI50: read-out: GI50 PC3. The method, then: as §1
The test system of assay [4] is DLD1 (colon). The assay can be described thus: cell growth inhibition, dictyostatin analogs, DLD1. It counts as cell-based. The following applies: for GI50: Homo sapiens. The protocol: as §1
Assay [5] concerns A549 (lung). The assay can be described thus: cell growth inhibition, dictyostatin analogs, A549. It counts as cell-based. The following applies: for GI50: Homo sapiens. The protocol: as §1
For assay [6], the system named is H522 (lung). The assay can be described thus: cell growth inhibition, Epo B analogs, H522. It counts as cell-based. The method, then:
(§2) Compounds 19, 20 and 21 were assayed for cell growth inhibition against four cell lines (PC3 (prostate), MCF7 breast), H522 (lung), and OVCAR8 (ovarian)) alongside reference samples of Epo A, ixabepilone and taxol (Table 1).

In assay [7] the test system is OVCAR8 (ovarian). The assay can be described thus: cell growth inhibition, Epo B analogs, OVCAR8. It counts as cell-based. The protocol:
as §2

In assay [8] the test system is MCF7 (breast). The assay can be described thus: cell growth inhibition, Epo B analogs, MCF7. It counts as cell-based. The protocol:
as §2

Assay [9] relates to PC3 (prostate). The assay can be described thus: cell growth inhibition, Epo B analogs, PC3. It counts as cell-based. The following applies: read-out: IC50 PC3 (Prostate). The protocol:
as §2

For assay [10] the following is noted: literature; cited from earlier work.
Where [11] appears, read: Homo sapiens, NCI-H522, read-out: IC50 H522 (Lung).
Setting [12] is: Homo sapiens, OVCAR-8, read-out: IC50 OVCAR8 (Ovarian).
The mark [13] stands for this setting: Homo sapiens, MCF7, read-out: IC50 MCF7 (Breast).
Where [14] appears, read: Homo sapiens, NCI-H522, H522 (Lung) cell line, read-out: IC50 H522 (Lung).
Setting [15] is: Homo sapiens, OVCAR-8, OVCAR8 (Ovarian) cell line, read-out: IC50 OVCAR8 (Ovarian).
Setting [16] is: Homo sapiens, MCF7 (Breast) cell line, read-out: IC50 MCF7 (Breast).

`C=C/C=C\[C@H](C)[C@@H]1OC(=O)/C=C\C=C\[C@@H](CCCCN=[N+]=[N-])[C@@H](O)C[C@H](O)/C=C\[C@H](C)[C@H](O)[C@@H](C)C[C@@H](C)CC[C@@H](O)[C@@H]1C` [C(6) analog 1]: the GI50 was found to be 2.2 nM in [1]; 1.9 nM in [3] (Prostate cell); 1.1 nM in [4] (DLD-1, read-out: GI50 DLD1); 1.1 nM in assay [5] (A549, read-out: GI50 A549). Besides, in assay [2] (four cell lines), the “GI50 values relative to dictyostatin” value is “only slightly attenuated relative to dictyostatin”.
Take `C/C(=C\c1csc(C)n1)[C@@H]1C[C@@H]2OC2(C)CCC[C@H](C)[C@H](O)[C@@H](CCCCN=[N+]=[N-])C(=O)C(C)(C)[C@@H](O)CC(=O)O1` (stereo partly drawn) [Compound 19]: the IC50 in assay [6] (setting [11]) is 0.4 nM; in [7] (setting [12]), 1 nM; in assay [8] (setting [13]) it was less than 0.65 nM; in assay [9] (Prostate cell), 2.1 nM.
Regarding `CC(=O)NCCCC[C@H]1C(=O)C(C)(C)[C@@H](O)CC(=O)O[C@H](/C(C)=C/c2csc(C)n2)C[C@@H]2OC2(C)CCC[C@H](C)[C@@H]1O` (stereo partly drawn) [Compound 21], the IC50 in [6] (setting [11]) is 0.6 nM; in assay [7] (setting [12]) it was 2.2 nM; in assay [8] (setting [13]), no more than 0.65 nM; in [9] (Prostate cell), 1 nM.
As to `C/C(=C\c1csc(C)n1)[C@@H]1C[C@@H]2O[C@@H]2CCC[C@H](C)[C@H](O)[C@@H](C)C(=O)C(C)(C)[C@@H](O)CC(=O)O1` [Epo A, epothilone A], the IC50 came to 5.5 nM in [6] (H522 (Lung) cell line, read-out: IC50 H522 (Lung)); 6 nM in assay [7] (OVCAR8 (Ovarian) cell line, read-out: IC50 OVCAR8 (Ovarian)); 7 nM in [8] (MCF7 (Breast) cell line, read-out: IC50 MCF7 (Breast)); 7 nM in assay [9] (PC3 (Prostate) cell line).
For the compound `C/C(=C\c1csc(C)n1)[C@@H]1C[C@@H]2O[C@]2(C)CCC[C@H](C)[C@H](O)[C@@H](C)C(=O)C(C)(C)[C@@H](O)CC(=O)N1` [Ixabepilone], the IC50 in assay [6] (setting [14]) was found to be 2.5 nM; in [7] (setting [15]) it was 3.3 nM; in assay [8] (setting [16]), 2 nM; in assay [9] (PC3 (Prostate) cell line), 4 nM.
For `CC(=O)O[C@H]1C(=O)[C@@]2(C)[C@H]([C@H](OC(=O)c3ccccc3)[C@]3(O)C[C@H](OC(=O)[C@H](O)[C@@H](NC(=O)c4ccccc4)c4ccccc4)C(C)=C1C3(C)C)[C@]1(OC(C)=O)CO[C@@H]1C[C@@H]2O` [Taxol, paclitaxel, reference compound], the IC50 is 2.6 nM in [6] (setting [14]), 1.9 nM in assay [7] (setting [15]), less than 0.13 nM in [8] (setting [16]) and 6 nM in [9] (PC3 (Prostate) cell line). For the same compound, the GI50 amounted to 0.4 nM in [1] (1A9 (ovarian) cell line); 1.9 nM in [3] (PC3 (Prostate) cell line); 15 nM in assay [4] (DLD-1, DLD1 (colon) cell line, read-out: GI50 DLD1); 1.2 nM in assay [5] (A549 (lung) cell line, read-out: GI50 A549).
As for `C=C/C=C\[C@H](C)[C@@H]1OC(=O)/C=C\C=C\[C@@H](CCCCNC(C)=O)[C@@H](O)C[C@H](O)/C=C\[C@H](C)[C@H](O)[C@@H](C)C[C@@H](C)CC[C@@H](O)[C@@H]1C` [amide 27], the GI50 in assay [1] turned out to be 30 nM; in assay [3] (Prostate cell) it was 50 nM; in assay [4] (DLD-1, read-out: GI50 DLD1) it was 32 nM; in [5] (A549, read-out: GI50 A549), 22 nM. Moreover, the “reduction in potency relative to azide 1” value in assay [2] (against all four cell lines) was 1-2 orders of magnitude.
As to `C=C/C=C\[C@H](C)[C@@H]1OC(=O)/C=C\C=C\[C@@H](C)[C@@H](O)C[C@H](O)/C=C\[C@H](C)[C@H](O)[C@@H](C)C[C@@H](C)CC[C@@H](O)[C@@H]1C` [dictyostatin], the GI50 in assay [1] is 0.8 nM; in [3] (Prostate cell) it was 1.3 nM; in assay [4] (DLD-1, read-out: GI50 DLD1), 0.4 nM; in assay [5] (A549, read-out: GI50 A549), 0.3 nM.
In the case of `C=C/C=C\[C@H](C)[C@@H]1OC(=O)/C=C\C=C\[C@@H](CCCCn2nnc3c2CC[C@@H]2[C@@H](CO)[C@@H]2CC3)[C@@H](O)C[C@H](O)/C=C\[C@H](C)[C@H](O)[C@@H](C)C[C@@H](C)CC[C@@H](O)[C@@H]1C` [triazole 26], the “activity relative to azide 1” value in assay [1] (1A9 cell line) was “only slightly diminished from that of azide 1”; in assay [3] (PC3 cell line) it was “only slightly diminished from that of azide 1”; in assay [4] (DLD1 cell line) it was “more substantial (though not catastrophic) reductions in potency”; in assay [5] (A549 cell line), “more substantial (though not catastrophic) reductions in potency”. In addition, the GI50 in assay [1] came to 8.4 nM; in [3] (Prostate cell) it was 4.8 nM; in assay [4] (DLD-1, read-out: GI50 DLD1), 13 nM; in [5] (A549, read-out: GI50 A549) it was 25 nM.
For C(6)-epi dictyostatin, in assay [10], the “potency relative to the natural product dictyostatin, in words” value is “as potent as the natural product”.
Turning to C(6)-normethyl dictyostatin, the “loss of potency relative to the natural product dictyostatin” value in assay [10] is recorded as ≤ 1 order of magnitude.

One may read the GI50 as the concentration at which growth is held to half of that of the control. As usually defined, the IC50 is the concentration at which inhibition is half-maximal.
